# Measurements as given in patent US9216971B2 (priority 2007, dated 2015).
# pKi: −log10 of the molar value. Where two headings read alike, the source gives them in different places.
# Key:
# [1] = biological target: T1, hM3 muscarinic receptor subtype (Homo sapiens, UniProt P20309); assay: biochemical; format: binding
# T1 construct: expressed in transfected cells; membranes prepared
# [2] = biological target: T2, hM2 receptor (Homo sapiens, UniProt P08172); assay: Blockade of agonist-mediated inhibition of cAMP accumulation; format: cell-based; settings: CHO-K1 cells expressing the hM2 receptor; read-out: Ki for blockade of oxotremorine-inhibition of forskolin-mediated cAMP accumulation
# T2 construct: expressed in transfected cells; host or cells: CHO-K1 cells
# T2 sequence (P08172 1-466): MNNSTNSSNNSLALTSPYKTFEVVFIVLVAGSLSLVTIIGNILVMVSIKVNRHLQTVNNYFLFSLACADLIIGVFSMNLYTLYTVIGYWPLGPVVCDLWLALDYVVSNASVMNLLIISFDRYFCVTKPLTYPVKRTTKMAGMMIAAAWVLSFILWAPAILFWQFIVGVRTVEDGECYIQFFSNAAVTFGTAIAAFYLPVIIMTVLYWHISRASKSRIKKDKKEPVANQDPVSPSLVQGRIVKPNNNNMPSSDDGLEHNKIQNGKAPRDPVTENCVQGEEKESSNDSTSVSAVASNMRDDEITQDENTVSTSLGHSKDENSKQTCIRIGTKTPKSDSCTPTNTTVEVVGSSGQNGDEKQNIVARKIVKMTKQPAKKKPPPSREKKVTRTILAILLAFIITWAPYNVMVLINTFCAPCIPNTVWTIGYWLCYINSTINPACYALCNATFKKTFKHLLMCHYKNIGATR
# [3] = tested on: MCh response; settings: rat
# [4] = tested on: pilocarpine-induced salivation; assay: Rat antisialagogue assay; format: in vivo; settings: evaluated at 1, 6, and 24 hours post-dose
# Procedure: Rats (Sprague-Dawley, male, 250-350 g) are dosed, anesthetized and cannulated as described for Assay 3. At predetermined time points and after surgery, animals are placed on their dorsal side at a 20° incline with their head in a downward slope. A pre-weighed gauze pad is inserted in the animal's mouth and the muscarinic agonist pilocarpine (PILO) (3 mg/kg, IV) is administered. Saliva produced during 10 minutes post-PILO is measured gravimetrically by determining the weight of the gauze pad before and after PILO. Antisialagogue effects are expressed as % inhibition of salivation relative to control animals.
# The rat antisialagogue assay was developed to assess systemic exposure and calculate the lung selectivity index (LSI) of test compounds. The standard, tiotropium, was evaluated in this model at 1, 6, and 24 hours post-dose. […] This finding is consistent with the peak effects observed in the Einthoven assay.
# This model is a modified version of the procedure described in Rechter, “Estimation of anticholinergic drug effects in mice by antagonism against pilocarpine-induced salivation” Ata Pharmacol Toxicol 24:243-254 (1996). The mean weight of saliva in vehicle-treated animals, at each pre-treatment time, is calculated and used to compute % inhibition of salivation, at the corresponding pre-treatment time, at each dose.
# T1 sequence (P20309 whole entry): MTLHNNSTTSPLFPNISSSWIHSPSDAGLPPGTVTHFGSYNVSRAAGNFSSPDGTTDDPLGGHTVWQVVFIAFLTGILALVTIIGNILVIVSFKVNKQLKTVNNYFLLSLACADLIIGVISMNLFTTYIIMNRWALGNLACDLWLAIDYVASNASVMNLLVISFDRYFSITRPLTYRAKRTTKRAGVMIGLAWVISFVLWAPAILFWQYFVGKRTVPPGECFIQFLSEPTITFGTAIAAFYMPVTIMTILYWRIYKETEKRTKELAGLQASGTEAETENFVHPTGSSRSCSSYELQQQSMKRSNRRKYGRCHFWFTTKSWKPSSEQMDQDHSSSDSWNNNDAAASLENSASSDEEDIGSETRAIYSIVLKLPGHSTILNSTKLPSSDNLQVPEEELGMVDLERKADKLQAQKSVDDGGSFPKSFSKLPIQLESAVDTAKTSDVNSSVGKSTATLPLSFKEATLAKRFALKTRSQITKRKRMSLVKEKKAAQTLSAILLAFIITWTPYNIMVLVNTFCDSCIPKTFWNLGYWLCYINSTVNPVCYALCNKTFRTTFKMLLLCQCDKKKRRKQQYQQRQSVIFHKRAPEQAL
compound,measurement,setting,value
"C[N+](C)(CCc1ccccc1)C1CCN(C(=O)[C@](O)(c2ccccc2)C2CCCC2)CC1 [Example 1, [1-((R)-2-cyclopentyl-2-hydroxy-2-phenylacetyl)piperidin-4-yl]dimethylphenethylammonium]",pKi,[1],> 9.00
"C[N+](C)(CCc1cccc(O)c1)C1CCN(C(=O)[C@](O)(c2ccccc2)C2CCCC2)CC1 [Example 2, [1-((R)-2-cyclopentyl-2-hydroxy-2-phenylacetyl)piperidin-4-yl][2-(3-hydroxyphenyl)ethyl]dimethylammonium]",pKi,[1],> 9.00
same,pKi,[2],> 9.00
C[N+]1(C)CCC(OC(=O)C(O)(c2ccccc2)C2CCCC2)C1 (stereo not shown) [glycopyrrolate],ID50 (bronchoprotective potency),"[3]; inhalation, 1.5 hours post-dose",15 µg/mL
CC(C)[N+]1(C)[C@@H]2CC[C@H]1C[C@@H](OC(=O)C(CO)c1ccccc1)C2 (stereo partly shown) [ipratropium],ID50 (bronchoprotective potency),[3]; in vivo,4.4 µg/mL
same,fold less potent 6-hours post-dose compared to 1.5 hour potency,[3]; in vivo,about 3 fold
C[N+]1(C)[C@@H]2C[C@@H](OC(=O)C(O)(c3cccs3)c3cccs3)C[C@H]1[C@@H]1O[C@@H]12 [tiotropium],time post dose at which most potent at inhibiting pilocarpine-induced salivation,[4],6 h
same,ID50 (bronchoprotective potency),[3]; in vivo,6 µg/mL
same,fold more potent at 6 hour and 24 hour compared to 1.5 hour potency,[3]; in vivo,about 2 fold
same,time of peak bronchoprotection post-dose,[3]; in vivo,6 h
